Test results as given in US20210196720A1 (UROVANT SCIENCES GMBH, priority 2018, published 2021).

Key:
[1] = cited from earlier work
clinical = conditions: human, in vivo
[2] = Phase 2b OAB study, adverse events
From the text: A placebo group was included in the main study, and a group that received tolterodine monotherapy was included in the main study and in the extension.

[3] = Phase 2b OAB study, cardiovascular safety (HR, SBP, DBP, orthostatic AEs); type: in vivo, human; conditions: 4 mg
From the text: None led to discontinuation. The overall incidence of orthostatic symptoms was low.
Small differences in the percent of subjects exceeding categorical heart rate and blood pressure thresholds for vibegron were similar to those in the tolterodine arm.

[4] = Drug interaction: effect of vibegron on conmed PK; conditions: human, in vivo, 4 mg
[5] = Mass balance study with [14C]vibegron, healthy subjects; conditions: human plasma, 2 and 4 hr
From the text: The accumulation potential of circulating metabolites in plasma was not estimated due to insufficient data from later time points to enable estimation of half-life.

O=C(O)c1cccc(-c2cccc(NCCNC[C@H](O)c3cccc(Cl)c3)c2)c1 [solabegron]
number of pain- and discomfort-free days vs placebo ([1]; Phase IIa, IBS, females): statistically significant increase
clinical benefit ([1]; Phase IIa, IBS, male subjects): no clinical benefit
bowel function and plasma somatostatin concentration ([1]; healthy volunteers): no effect
gastrointestinal or colonic transit ([1]; healthy volunteers): did not significantly alter

C#C[C@]1(O)CC[C@H]2[C@@H]3CCC4=CC(=O)CC[C@@H]4[C@H]3CC[C@@]21CC [LNG, levonorgestrel]
AUC (clinical; 0.15 mg): 31 ng·h/mL
Cmax (clinical; 0.15 mg): 2.07 ng/mL

Cc1ccc(O)c([C@H](CCN(C(C)C)C(C)C)c2ccccc2)c1 [Tolterodine ER, reference compound]
Discontinuation due to drug-related AE, subjects ([2]; first 12 weeks, dose group by column): 0 n
frequency of injuries ([2]; human, in vivo): 2.1%
DBP change from baseline, mean (95% CI) max, week 1 to 8 [3]: 5.19 (4.26, 6.13) mm Hg
DBP change from baseline, mean (95% CI), week 1 [3]: −0.12 (−1.10, 0.86) mm Hg
HR change from baseline, mean (95% CI) maximum, week 1 to 8 [3]: 5.66 (4.69, 6.63) bpm
HR change from baseline, mean (95% CI), week 1 [3]: 0.68 (−0.31, 1.67) bpm
SBP change from baseline, mean (95% CI) maximum, week 1 to 8 [3]: 7.29 (6.01, 8.57) mm Hg
SBP change from baseline, mean (95% CI), week 1 [3]: 0.04 (−1.36, 1.43) mm Hg
Cmax [4]: 2.28 ng/mL

C#C[C@]1(O)CC[C@H]2[C@@H]3CCc4cc(O)ccc4[C@H]3CC[C@@]21C [EE, ethinyl estradiol]
AUC (clinical; 0.03 mg): 0.81 ng·h/mL
Cmax (clinical; 0.03 mg): 0.0719 ng/mL

O=C(O)C1OC(OC(c2ccccc2)C2CCC(Cc3ccc(NC(=O)C4CCc5nccc(=O)n54)cc3)N2)C(O)C(O)C1O (stereo not shown) [M7]
share of total circulating drug-related material [5]: 12-14%

C[C@H]1O[C@@H](O[C@H]2[C@@H](O)C[C@H](O[C@H]3[C@@H](O)C[C@H](O[C@H]4CC[C@@]5(C)[C@H](CC[C@@H]6[C@@H]5C[C@@H](O)[C@]5(C)[C@@H](C7=CC(=O)OC7)CC[C@]65O)C4)O[C@@H]3C)O[C@@H]2C)C[C@H](O)[C@@H]1O [Digoxin]
AUC (clinical; 0.25 mg): 16.6 ng·h/mL
